From patent publication US9622987B2, “Synergistic pharmaceutical composition useful for the treatment of lung cancer” (Council of Scientific & Industrial Research, priority 2012, dated 2017)

System: Lung Cancer cell Line (A-549)
Experiment: Cell death / viability of A549 lung cancer cells exposed to vapour (MTT, trypan blue)
Format: cell-based
Settings: for activity so far lung cancer cell death is concerned (FIG. 1C): vapors of single compounds, 1:2000 dilution, 48 h, A549
Method: The lung cancer cell line, A-549 were cultured in DMEM (Dulbecco's Modified Eagle Medium) containing Earle's salts and non-essential amino acids supplemented with 10% fetal calf serum, penicillin (100 U/ml) and streptomycin (100 μg/ml) in a humidified 95% O2/5% CO2 atmosphere at 37° C. Confluent cells were subcultured by trypsinization and subsequently seeded in 6 well culture plates containing DMEM with essential supplements.
After CVp treatment, cells were washed with PBS, trypsinized and re-suspended in complete growth medium. Trypan blue (0.4%) was added to the cell suspension and both live and dead cells were counted using a heamocytometer.
Cell viability was determined by performing MTT assay (Chemicon, Temecula, Calif., USA) according to manufacturer's instructions. Briefly, cells were plated in 96 well plates. Overnight after cell plating, cells were incubated with CVp. Briefly, 10 μL of 3-(4,5-dimethylthiazol-2-yl)-2-5-diphenyl tetrazolium bromide (MTT) was added to each well for 4 h at 37° C. After solubilization in 100 μL 1(N) isopropanol/0.04(N) HCl, absorbance was read at 595 nm in microplate reader (Thermo Electron Corporation, MA, USA).
The vapors generated from each of these wells were exposed to cells at 1:2000 dilution for 48 h. […] We therefore used the vapor from these combined compounds which is henceforth termed as Combined Vapour (CVp=C2+C3+C4).

| Structure (SMILES) | activity so far lung cancer cell death is concerned (FIG. 1C) | Activity in vapour form % of cell death for Lung Cancer cell Line (A-549) [%] |
| --- | --- | --- |
| CC(C)=CCCC(C)CC=O (stereo not drawn) [Compound C1, Citronellal] | poor activity | 12.5 ± 3.6 |
| C=C(C)C1CCC(C)CC1O (stereo not drawn) [Compound C2, Neo-isopulegol] | – | 30.5 ± 5.0 |
| C=C(C)[C@@H]1CC[C@@H](C)C[C@H]1O [Compound C3, Isopulegol] | – | 36.0 ± 4.5 |
| CC(C)=CCCC(C)CCO (stereo not drawn) [Compound C4, Citronellol] | highest activity | 70.0 ± 6.0 |
